Read-outs that look alike come from different tables or passages of the source.
Columns and labels:
human S1P3 receptor = target: T1, human S1P3 receptor (Homo sapiens, UniProt Q99500); assay: FLIPR Ca+2 assay: ability to activate or block activation of the human S1P3 receptor in T24 cells; format: cell-based
T1 construct: expressed in transfected cells
Method: Compounds were assessed for their ability to activate or block activation of the human S1P3 receptor in T24 cells stably expressing the human S1P3 receptor. Ten thousand cells/well were plated into 384-well poly-D-lysine coated plates one day prior to use. The growth media for the S1P3 receptor expressing cell line was McCoy's 5A medium supplemented with 10% charcoal-treated fetal bovine serum (FBS), 1% antibiotic-antimycotic and 400 μg/ml geneticin. On the day of the experiment, the cells were washed twice with Hank's Balanced Salt Solution supplemented with 20 mM HEPES (HBSS/Hepes buffer). The cells were then dye loaded with 2 uM Fluo-4 diluted in the HBSS/Hepes buffer with 1.25 mM Probenecid and incubated at 37° C. for 40 minutes. Extracellular dye was removed by washing the cell plates four times prior to placing the plates in the FLIPR (Fluorometric Imaging Plate Reader, Molecular Devices). Ligands were diluted in HBSS/Hepes buffer and prepared in 384-well microplates. The positive control, Sphingosine-1-Phosphate (SIP), was diluted in HBSS/Hepes buffer with 4 mg/ml fatty acid free bovine serum albumin. The FLIPR transferred 12.5 μl from the ligand microplate to the cell plate and took fluorescent measurements for 75 seconds, taking readings every second, and then for 2.5 minutes, taking readings every 10 seconds. Drugs were tested over the concentration range of 0.61 nM to 10,000 nM. Data for Ca^+2 responses were obtained in arbitrary fluorescence units and not translated into Ca^+2 concentrations. IC50 values were determined through a […] analysis using the Levenburg Marquardt algorithm.

perfused porcine eyes = details: by altering paracellular permeability, IOVS 45, 2263, 2004; cited from earlier work
[1] = T24 cells stably expressing human S1P3, antagonist activity, tested 0.61 nM to 10,000 nM, read-out: S1P3 IC50
[2] = T-24, T24 cells stably expressing human S1P3, antagonist activity, value in parentheses, read-out: S1P3 (% eff.)

T1 sequence (Q99500 whole entry): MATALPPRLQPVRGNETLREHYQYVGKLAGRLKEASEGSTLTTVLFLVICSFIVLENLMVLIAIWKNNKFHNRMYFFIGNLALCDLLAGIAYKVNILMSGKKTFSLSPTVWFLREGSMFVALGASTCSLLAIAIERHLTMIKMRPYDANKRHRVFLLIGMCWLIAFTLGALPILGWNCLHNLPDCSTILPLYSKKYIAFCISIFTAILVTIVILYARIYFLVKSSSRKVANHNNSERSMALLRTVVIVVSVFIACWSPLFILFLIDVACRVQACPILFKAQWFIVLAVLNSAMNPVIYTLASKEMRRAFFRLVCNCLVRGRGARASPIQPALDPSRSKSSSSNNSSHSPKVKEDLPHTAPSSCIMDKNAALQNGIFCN

Row | Compound | IC50 (human S1P3 receptor) [nM] | Emax (human S1P3 receptor; T-24, read-out: S1P3 (% eff.)) [%] | IC50 (human S1P3 receptor; [1]) [nM] | Emax (human S1P3 receptor; [2]) [%] | decrease of outflow facility (perfused porcine eyes) [%]
1 | Cc1c(C(=O)NCc2cc(F)cc(F)c2)c2cc(O)ccc2n1Cc1ccccc1 [Compound 3, 1-Benzyl-5-hydroxy-2-methyl-1H-indole-3-carboxylic Acid, 3,5-Difluorobenzylamide] | 510 | 53 | – | – | –
2 | Cc1c(C(=O)NCc2ccc(F)c(F)c2)c2cc(O)ccc2n1Cc1cccs1 [Compound 4, 5-Hydroxy-2-methyl-1-thiophen-2-ylmethyl-1H-indole-3-carboxylic Acid, 3,4-Difluorobenzylamide] | 1700 | 66 | – | – | –
3 | CCCCn1c(C)c(C(=O)NCc2cc(F)cc(F)c2)c2cc(O)ccc21 [Compound 6, 1-Butyl-5-hydroxy-2-methyl-1H-indole-3-carboxylic Acid, 3,5-Difluoro-benzylamide] | 2500 | 55 | – | – | –
4 | Cc1c(C(=O)NCc2ccc(F)c(F)c2)c2cc(O)ccc2n1Cc1ccco1 [Compound 9, 1-Furan-2-ylmethyl-5-hydroxy-2-methyl-1H-indole-3-carboxylic Acid, 3,4-Difluorobenzylamide] | 2900 | 97 | – | – | –
5 | Cc1c(C(=O)NCc2cc(F)cc(F)c2)c2cc(O)ccc2n1Cc1cccs1 [Compound 11, 5-Hydroxy-2-methyl-1-thiophen-2-ylmethyl-1H-indole-3-carboxylic Acid, 3,5-Difluorobenzylamide] | 1800 | 67 | – | – | –
6 | Cc1c(C(=O)NCc2cc(F)cc(F)c2)c2cc(O)ccc2n1Cc1ccco1 [Compound 12, 1-Furan-2-ylmethyl-5-hydroxy-2-methyl-1H-indole-3-carboxylic Acid 3,5-Difluorobenzylamide] | 950 | 77 | – | – | –
7 | Cc1c(C(=O)NCc2ccc(F)c(F)c2)c2cc(O)ccc2n1Cc1ccccc1 [Compound 13, 1-Benzyl-5-hydroxy-2-methyl-1H-indole-3-carboxylic Acid, 3,4-Difluoro-benzylamide] | 1500 | 84 | – | – | –
8 | Cc1c(C(=O)NCc2cccc(F)c2)c2cc(O)ccc2n1Cc1cccs1 [Compound 14, 5-Hydroxy-2-methyl-1-thiophen-2-ylmethyl-1H-indole-3-carboxylic Acid, 3-Fluorobenzylamide] | 3200 | 85 | – | – | –
9 | Cc1c(C(=O)NCc2ccccc2)c2cc(O)ccc2n1Cc1cccs1 [Compound 15, 5-Hydroxy-2-methyl-1-thiophen-2-ylmethyl-1H-indole-3-carboxylic Acid, Benzylamide] | 1600 | 48 | – | – | –
10 | COc1cccc(CNC(=O)c2c(C)n(Cc3cccs3)c3ccc(O)cc23)c1 [Compound 17, 5-Hydroxy-2-methyl-1-thiophen-2-ylmethyl-1H-indole-3-carboxylic Acid, 3-Methoxybenzylamide] | 910 | 33 | – | – | –
11 | CCCCn1c(C)c(C(=O)NCc2cccc(OC)c2)c2cc(O)ccc21 [Compound 18, 1-Butyl-5-hydroxy-2-methyl-1H-indole-3-carboxylic Acid, 3-Methoxy-benzylamide] | 5100 | 42 | – | – | –
12 | Cc1c(C(=O)NCc2ccc(F)cc2)c2cc(O)ccc2n1Cc1cccs1 [Compound 19, 5-Hydroxy-2-methyl-1-thiophen-2-ylmethyl-1H-indole-3-carboxylic Acid, 4-Fluorobenzylamide] | 2700 | 72 | – | – | –
13 | Cc1ccc(CNC(=O)c2c(C)n(Cc3cccs3)c3ccc(O)cc23)cc1 [Compound 20, 5-Hydroxy-2-methyl-1-thiophen-2-ylmethyl-1H-indole-3-carboxylic Acid, 4-Methylbenzylamide] | 2500 | 71 | – | – | –
14 | Cc1c(C(=O)NCc2cccc(Cl)c2)c2cc(O)ccc2n1Cc1cccs1 [Compound 21, 5-Hydroxy-2-methyl-1-thiophen-2-ylmethyl-1H-indole-3-carboxylic Acid, 3-Chlorobenzylamide] | 1200 | 38 | – | – | –
15 | Cc1c(C(=O)NCc2ccc(Cl)cc2)c2cc(O)ccc2n1Cc1cccs1 [Compound 22, 5-Hydroxy-2-methyl-1-thiophen-2-ylmethyl-1H-indole-3-carboxylic Acid, 4-Chlorobenzylamide] | 2500 | 83 | – | – | –
16 | COc1ccccc1CNC(=O)c1c(C)n(Cc2cccs2)c2ccc(O)cc12 [Compound 23, 5-Hydroxy-2-methyl-1-thiophen-2-ylmethyl-1H-indole-3-carboxylic Acid, 2-methoxybenzylamide] | 2400 | 23 | – | – | –
17 | CCc1c(C(=O)NCc2ccc(F)c(F)c2)c2cc(O)ccc2n1Cc1ccccc1 [Compound 25, 1-Benzyl-2-ethyl-5-hydroxy-1H-indole-3-carboxylic Acid, 3,4-Difluoro-benzylamide] | 700 | 98 | – | – | –
18 | CCc1c(C(=O)NCc2cccc(OC)c2)c2cc(O)ccc2n1Cc1ccccc1 [Compound 26, 1-Benzyl-2-ethyl-5-hydroxy-1H-indole-3-carboxylic Acid, 3-Methoxy-benzylamide] | 1900 | 97 | – | – | –
19 | CC(C)c1c(C(=O)NCc2ccc(F)c(F)c2)c2cc(O)ccc2n1Cc1ccccc1 [Compound 28, 1-Benzyl-5-hydroxy-2-isopropyl-1H-indole-3-carboxylic Acid, 3,4-Difluorobenzamide] | 55 | 98 | – | – | –
20 | Cc1c(C(=O)NCc2ccc(F)c(F)c2)c2cc(O)ccc2n1-c1ccccc1 [Compound 29, 5-Hydroxy-2-methyl-1-phenyl-1H-indole-3-carboxylic Acid 3,4-Difluoro-benzylamide] | – | – | 9700 | 76 | –
21 | Cc1c(C(=O)NCc2ccc(F)c(F)c2)c2cc(O)ccc2n1-c1ccccn1 [Compound 30, 5-Hydroxy-2-methyl-1-pyridin-2-yl-1H-indole-3-carboxylic Acid 3,4-Difluoro-benzylamide] | – | – | 1500 | 23 | –
22 | Cc1c(C(=O)NCc2ccc(F)c(F)c2)c2cc(O)ccc2n1-c1cccs1 [Compound 31, 5-Hydroxy-2-methyl-1-thiophen-2-yl-1H-indole-3-carboxylic Acid 3,4-Difluorobenzylamide] | – | – | 2500 | 81 | –
23 | CCc1c(C(=O)NCc2cc(F)cc(F)c2)c2cc(O)ccc2n1Cc1ccccc1 [Compound 32, 1-Benzyl-2-ethyl-5-hydroxy-1H-indole-3-carboxylic Acid 3,5-Difluoro-benzylamide] | 280 | 97 | – | – | –
24 | CC(C)c1c(C(=O)NCc2cc(F)cc(F)c2)c2cc(O)ccc2n1Cc1ccccc1 [Compound 33, 1-Benzyl-5-hydroxy-2-isopropyl-1H-indole-3-carboxylic Acid, 3,5-difluorobenzylamide] | 110 | 99 | – | – | –
25 | COc1cccc(CNC(=O)c2c(C(C)C)n(Cc3ccccc3)c3ccc(O)cc23)c1 [Compound 34, 1-Benzyl-5-hydroxy-2-isopropyl-1H-indole-3-carboxylic Acid, 3-methoxybenzylamide] | 410 | 98 | – | – | –
26 | O=C(NCc1cc(F)cc(F)c1)c1c(-c2ccccc2)n(Cc2ccccc2)c2ccc(O)cc12 [Compound 48, 1-Benzyl-5-hydroxy-2-phenyl-1H-indole-3-carboxylic Acid, 3,5-Difluoro-benzylamide] | 880 | 98 | – | – | –
27 | CCCCCCCCCCCCC/C=C/[C@@H](O)[C@@H](N)COP(=O)(O)O [Compound S1P, Sphingosine-1-Phosphate] | – | – | – | – | > 30

— patent US7737173B2, “Indole-3-carboxylic acid amide, ester, thioamide and thiol ester compounds bearing aryl or heteroaryl groups having sphingosine-1-phosphate (S1P) receptor antagonist biological activity” (Allergan, Inc., priority 2006, dated 2010)
